Data reported in publication PMC8026400, “Osmium–arene complexes with high potency towards Mycobacterium tuberculosis” (Metallomics: Integrated Biometal Science, 2021).
≈ marks a conversion by molar mass, not a printed value.

Legend:
Mtb H37Rv = experiment: MIC against Mtb H37Rv, resazurin microtitre assay; format: cell-based, Mycobacterium tuberculosis; settings: 7-day exposure, Middlebrook 7H9 broth, 0.2% glycerol, 0.05% Tween 80, 10% ADC, three biological repeats
[1] = system: MRC5 (human foetal lung fibroblast) cells; experiment: Antiproliferative activity against human cell line, SRB assay; format: cell-based; settings: 24 h drug exposure and 72 h recovery in drug-free medium
Experimental: MRC5 (human foetal lung fibroblast) cell lines were obtained from Public Health England (mycoplasma-free status confirmed at six-monthly intervals by internal and external screening). They were thawed upon receipt and the supernatant removed after centrifugation (1000 rpm, 5 min). Cells were re-suspended in DMEM culture medium (supplemented with 10% v/v FCS, 1% penicillin/streptomycin, and 1% L-glutamine) and grown as adherent monolayers at 310 K in a 5% CO2 humidified atmosphere. Cells were passaged using trypsin/EDTA after reaching ∼90% confluence. Trypsin activity was quenched by addition of excess medium, and the single-cell suspension passaged twice weekly. MRC5 fibroblasts were discarded after five passages.
Briefly, 5 × 10^3 cells (MRC5) were seeded in a 96-well plate using 0.15 mL of culture medium. After 48 h pre-incubation at 310 K, the supernatant was removed and cells exposed to six concentrations (0–100 µM) of osmium complex, for which exact concentrations were determined using ICP-OES (calibration standards for Os freshly prepared in 3.6% v/v nitric acid containing 100 mg L^–1 ascorbic acid and 10 mM thiourea). DMSO was used to aid solubility of Os complexes, but never exceeded 0.5% v/v in the final culture medium. Cells were exposed to Os complexes for 24 h, and then washed with PBS and allowed 72 h recovery time in drug-free medium. Cell viability was determined using the sulforhodamine B (SRB) assay. Cells were fixed using 50 µL of 50% TCA, incubated at 277 K for 1 h, and then stained using SRB dye (0.4% dye in 1% acetic acid). After 30 min, excess dye was removed by acetic acid washing, and then the stain liberated using Tris base (10 mM, pH 10.5). Absorbance was measured using a Thermo Scientific Multiskan FC microplate reader fitted with a 492-nm filter. Data were processed using Microsoft Excel and are reported as percentage survival relative to the untreated control. Sigmoidal dose/response curves were fitted using Origin 2016 to determine IC50. Data were acquired as duplicate of triplicate experiments, with a positive control of cisplatin (CDDP).

Mtb [2] = settings: comparison values, no reference given; cited from earlier work
Mtb [3] = experiment: Minimum bactericidal concentration against Mtb (CFU plating); format: cell-based, Mycobacterium tuberculosis; settings: for MBC (minimal bactericidal concentration): lowest concentration with no CFUs on 7H10 medium; for bactericidal character against actively growing Mtb: from correlation of MBC with MIC
Experimental: The minimum bactericidal activity (MBC) was determined by setting up a microtitre plate as performed for the MIC determination. Instead of adding resazurin, each well from the microtitre plate was plated on to solid 7H10 medium and the CFUs were determined after incubation at 37°C. The lowest concentration at which no CFUs were counted was taken as the MBC. The MBCs were carried out with three independent experimental repeats.

Molecule | MIC (Mtb H37Rv) [µM] | IC50 [1] [µM] | further results
CN(C)c1ccc(N=Nc2ccccn2)cc1.Cc1ccc(C(C)C)cc1.[I-].[I][Os+] [Complex 8] | 1.25 | 0.42 ± 0.01 | –
Cc1ccc(C(C)C)cc1.F[P-](F)(F)(F)(F)F.[I][Os+].c1ccc(N=Nc2ccccn2)cc1 [Complex 10] | 5 | 0.79 ± 0.06 | –
CC[C@@H](CO)NCCN[C@@H](CC)CO [ethambutol] | – | – | MIC of current clinical TB drugs (Mtb [2]): ~5 µM
Cc1ccc(C(C)C)cc1.F[P-](F)(F)(F)(F)F.Fc1ccc(N=Nc2ccccc2)nc1.[I][Os+] [Complex 12] | 15.6 | 9.1 ± 0.6 | –
CN(C)c1ccc(N=Nc2ccccn2)cc1.Cc1ccc(C(C)C)cc1.[Cl-].[I][Os+] [Complex 7] | 1.25 | 0.68 ± 0.03 | –
CN(C)c1ccc(N=Nc2ccccn2)cc1.Cc1ccc(C(C)C)cc1.F[P-](F)(F)(F)(F)F.[I][Os+] [Complex 2, [Os(AzPy-NMe2)I(p-cymene)]PF6] | 1.25 | 0.89 ± 0.01 | MBC (minimal bactericidal concentration) (Mtb [3]): 6.25 µM
capreomycin | – | – | MIC of current clinical TB drugs (Mtb [2]): ~3 µM
CN(C)c1ccc(N=Nc2ccccn2)cc1.Cc1ccc(C(C)C)cc1.F[P-](F)(F)(F)(F)F.[Cl][Os+] [Complex 1] | 5 | 7.1 ± 0.2 | bactericidal character against actively growing Mtb (Mtb [3]): bactericidal; MBC (minimal bactericidal concentration) (Mtb [3]): 12.5 µM
[H]/N=C(/N)N[C@H]1[C@H](O)[C@@H](O)[C@H](O[C@@H]2O[C@@H](C)[C@](O)(C=O)[C@H]2O[C@@H]2O[C@@H](CO)[C@H](O)[C@@H](O)[C@@H]2NC)[C@@H](N/C(N)=N\[H])[C@@H]1O [streptomycin] | – | – | MIC of current clinical TB drugs (Mtb [2]): ~9 µM
NNC(=O)c1ccncc1 [isoniazid] | – | – | MIC of current clinical TB drugs (Mtb [2]): ~1 µM
CN(C)c1ccc(N=Cc2ccccn2)cc1.Cc1ccc(C(C)C)cc1.F[P-](F)(F)(F)(F)F.[I][Os+] [Complex 6] | 7.81 | 13 ± 2 | –
CN(C)c1ccc(N=Nc2ccccn2)cc1.F[P-](F)(F)(F)(F)F.[Cl][Os+].c1ccc(-c2ccccc2)cc1 [Complex 3] | 31.25 | 16.9 ± 0.1 | –
CN(C)c1ccc(N=Nc2ccccn2)cc1.F[P-](F)(F)(F)(F)F.[I][Os+].c1ccc(-c2ccccc2)cc1 [Complex 4] | 2.5 | 0.42 ± 0.03 | bactericidal character against actively growing Mtb (Mtb [3]): bactericidal; MBC (minimal bactericidal concentration) (Mtb [3]): 6.25 µM
Brc1ccc(N=Nc2ccccc2)nc1.Cc1ccc(C(C)C)cc1.F[P-](F)(F)(F)(F)F.[Cl][Os+] [Complex 11] | 125 | 18 ± 1 | –
Cc1ccc(C(C)C)cc1.F[P-](F)(F)(F)(F)F.[Cl][Os+].c1ccc(N=Nc2ccccn2)cc1 [Complex 9] | 15.6 | 15 ± 2 | –
F[P-](F)(F)(F)(F)F.Oc1ccc(N=Cc2ccccn2)cc1.[I][Os+].c1ccc(-c2ccccc2)cc1 [Complex 15] | 5 | 13.5 ± 0.9 | –
CO[C@H]1/C=C/O[C@@]2(C)Oc3c(C)c(O)c4c(O)c(c(/C=N/N5CCN(C)CC5)c(O)c4c3C2=O)NC(=O)/C(C)=C\C=C\[C@H](C)[C@H](O)[C@@H](C)[C@@H](O)[C@@H](C)[C@H](OC(C)=O)[C@@H]1C [Rifampicin, reference compound] | – | – | MIC (Mtb H37Rv; Mycobacterium tuberculosis, H37RV, 168 h): 0.38 to 0.76 µM (≈ 0.313 to 0.625 µg/mL)
F[P-](F)(F)(F)(F)F.Fc1ccc(N=Nc2ccccc2)nc1.[I][Os+].c1ccc(-c2ccccc2)cc1 [Complex 13] | 62.5 | 5.2 ± 0.7 | –
Cc1ccc(C(C)C)cc1.Clc1ccc(N=Nc2ccccc2)nc1.F[P-](F)(F)(F)(F)F.[I][Os+] [Complex 14] | 62.5 | 16 ± 2 | –
CN(C)c1ccc(N=Cc2ccccn2)cc1.Cc1ccc(C(C)C)cc1.F[P-](F)(F)(F)(F)F.[Cl][Os+] [Complex 5] | 31.25 | 7.6 ± 0.9 | –
